{"source": "patent EP0967201A1", "about": "“Pharmaceutical agents containing sulfonamids as matrix metalloproteinase inhibitors” (Roche Diagnostics GmbH, priority 1998, dated 1999)", "key": {"MMP-8": {"target": "T1, MMP-8 (Homo sapiens, UniProt P22894)", "T1 construct": "catalytic domain (Met80-Gly242) of human neutrophil collagenase; made in house", "T1 sequence (P22894 100-262 limits assumed)": "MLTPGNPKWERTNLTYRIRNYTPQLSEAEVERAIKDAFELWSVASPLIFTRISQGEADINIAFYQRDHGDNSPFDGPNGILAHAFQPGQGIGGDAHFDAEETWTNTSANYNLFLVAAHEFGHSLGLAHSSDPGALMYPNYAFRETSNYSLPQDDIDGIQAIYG", "test": "MMP inhibition enzyme assay (initial reaction rate, standard substrate DNP-Pro-Leu-Gly-Leu-Trp-Ala-D-Arg-NH2)", "assay_type": "biochemical", "settings": "8 nM catalytic domain (Met80-Gly242) of human neutrophil collagenase; 10 microM substrate; pH 7.6; read-out: MMP-8 Inhib. [%] IC50", "procedure": "(§1) In order to determine the inhibition of MMPs, for example MMP-8, the catalytic domain (isolation and purification see for example Schnierer, S., Kleine, T., Gote, T., Hillemann, A., Knäuper, V., Tschesche, H.,Biochem. Biophys. Res. Commun. (1993) 191, 319-326) is incubated with inhibitors having various concentrations. Subsequently, the initial reaction rate in the conversion of a standard substrate is measured in a manner analogous to Grams F. et al., FEBS 335 (1993) 76-80). Alternatively the percent inhibition will be determined at a distant inhibitor concentration.\n(§2) The assays for other MMPs are performed in a analogous manner. • Assay buffer: 50 mM Tris/HCI pH 7.6 (Tris= Tris-(hydroxymethyl)-aminomethan) 100 mM NaCl/10 mM CaCl2-/5% MeOH (if necessary) • Enzyme: 8 nM catalytic domain (Met80-Gly242) of human neutrophil collagenase • Substrate: 10 microM DNP-Pro-Leu-Gly-Leu-Trp-Ala-D-Arg-NH2 • Total assay volume: 1 ml"}, "MMP-9": {"target": "MMP-9 (Homo sapiens, UniProt P14780)", "sequence (P14780 94-707, species assumed)": "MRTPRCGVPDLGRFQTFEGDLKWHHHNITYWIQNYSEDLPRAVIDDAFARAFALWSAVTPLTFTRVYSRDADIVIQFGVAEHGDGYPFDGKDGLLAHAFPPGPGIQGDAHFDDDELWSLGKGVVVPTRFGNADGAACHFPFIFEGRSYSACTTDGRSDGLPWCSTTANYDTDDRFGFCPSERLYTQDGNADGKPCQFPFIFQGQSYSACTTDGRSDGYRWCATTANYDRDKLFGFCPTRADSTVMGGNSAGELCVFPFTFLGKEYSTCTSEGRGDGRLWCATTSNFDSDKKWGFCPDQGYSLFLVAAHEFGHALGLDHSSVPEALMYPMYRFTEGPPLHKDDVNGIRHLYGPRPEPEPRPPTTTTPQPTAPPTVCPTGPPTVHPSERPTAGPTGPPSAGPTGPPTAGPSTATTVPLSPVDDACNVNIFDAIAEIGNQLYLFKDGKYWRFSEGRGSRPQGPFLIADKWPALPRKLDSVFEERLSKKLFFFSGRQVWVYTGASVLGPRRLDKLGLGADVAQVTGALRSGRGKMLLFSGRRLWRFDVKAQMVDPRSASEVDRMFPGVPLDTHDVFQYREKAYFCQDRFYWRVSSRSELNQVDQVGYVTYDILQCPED", "test": "MMP inhibition enzyme assay, performed in an analogous manner to MMP-8", "assay_type": "biochemical", "settings": "compound concentration 0.21 µM (100 ng/ml); read-out: MMP-9 Inhib. [%]", "procedure": "as §1, §2"}}, "data": [{"smiles": "O=C(O)[C@H](CSCc1ccccc1)NS(=O)(=O)c1ccc(-c2ccc(Cl)cc2)cc1", "note": "[Example 1, N-(p-Chloro-biphenylsulfonyl)-S-benzyl-cysteine]", "values": [{"measurement": "IC50", "setting": "MMP-8", "value": 21.6, "unit": "nM"}]}, {"smiles": "O=C(C[C@H](NS(=O)(=O)c1ccc(-c2ccc(Cl)cc2)cc1)C(=O)O)OCc1ccccc1", "note": "[Example 2, L-N-(p-Chlorobiphenylsulfonyl)-aspartic acid-β-benzylester]", "values": [{"measurement": "inhibition at 0.21 µM", "setting": "MMP-9", "value": 38, "unit": "%"}, {"measurement": "IC50", "setting": "MMP-8", "value": 48.7, "unit": "nM"}]}]}
